In patent publication US20240182893A1, “INHIBITION OF FGR REDUCES FIBROSIS” (UNIVERSITY OF PITTSBURGH-OF THE COMMONWEALTH SYSTEM OF …, priority 2021, published 2024):
Entries after “also recorded” stand apart in the source; their conditions may differ.

Molecular target: T1, Fgr (Mus musculus, UniProt P14234)
T1 construct: endogenous in cells; host or cells: tdTOMp16+ mouse bone marrow stromal (MSC) cell line, irradiated, senescent tdTOM+ cells
Assay: Western blot of Fgr phosphorylation in tdTOMp16+ cells (phospho-Fgr antibody)
Format: cell-based
Procedure: FIG. 7A-FIG. 7B show shRNA knockdown of Fgr in vitro and inhibition of activation of Fgr by TL02-59. FIG. 7A) The tdTOMp16+ cell line was transfected with three individual Fgr shRNAs. […] (Phospho-FGR (Tyr412) Rabbit Polyclonal Antibody. Company: Thermo Fisher Scientific, Catalogue #PA5-64583).
FIG. 23A-FIG. 23C. […] FIG. 23A—Irradiated tdTOMp16+ non-senescent (tdTOM−) and senescent (tdTOM+) cells were cultured on the top well of the transwell, and the target C57BL/6 stromal cells were cultured on the bottom well. Cells were treated with either vehicle or 10 nM Fgr inhibitor TL02-59 and after 10 days, target cells were harvested for RNA, and RT-qPCR was performed for TGF-β and Collagen 3 genes. FIG. 23B—Inhibition of Fgr phosphorylation by TL02-59 was confirmed by western blot from the vehicle and TL02-59-treated cell lysates of irradiated senescent (tdTOM+) cells (n=3, *P=<0.05; **P=0.01). […] NS nonsignificant), P values were calculated by t test.
The role of Fgr in fibrosis induction was next investigated by two methods of inhibition: first, pharmacologic inhibition of Fgr was applied by adding the Fgr-specific small-molecule inhibitor TL02-59 (FIG. 23A, FIG. 23B). […] Using the transwell non-contact coculture system, the effect of a specific inhibitor of Fgr TL02-59 (10 nM) on the induction of biomarkers of fibrosis in target cells by tdTOM+ senescent cells was measured for 10 days. […]

T1 sequence (P14234 whole entry): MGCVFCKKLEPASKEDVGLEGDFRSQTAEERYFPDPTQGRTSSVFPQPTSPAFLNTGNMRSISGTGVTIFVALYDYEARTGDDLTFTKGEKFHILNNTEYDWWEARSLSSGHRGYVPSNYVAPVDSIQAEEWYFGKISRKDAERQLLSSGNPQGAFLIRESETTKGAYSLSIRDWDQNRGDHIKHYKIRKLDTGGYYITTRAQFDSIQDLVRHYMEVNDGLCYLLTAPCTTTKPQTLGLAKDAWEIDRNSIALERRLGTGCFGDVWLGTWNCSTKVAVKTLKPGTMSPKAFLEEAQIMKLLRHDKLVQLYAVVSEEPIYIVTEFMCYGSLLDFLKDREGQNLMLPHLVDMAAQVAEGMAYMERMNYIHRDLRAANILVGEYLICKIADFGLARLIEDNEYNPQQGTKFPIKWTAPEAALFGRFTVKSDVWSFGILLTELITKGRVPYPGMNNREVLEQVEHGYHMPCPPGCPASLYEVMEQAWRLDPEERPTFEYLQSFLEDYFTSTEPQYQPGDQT

CCN1CCN(Cc2ccc(NC(=O)c3ccc(C)c(Oc4ncnc5cc(OC)c(OC)cc45)c3)cc2C(F)(F)F)CC1 [TL02-59]
phosphorylation of Fgr (Tyr412) (0.1 μM TL02-59, tdTOMp16+ cell line, FIG. 7B): Inhibition of phosphorylation of Fgr | Fgr phosphorylation in irradiated senescent (tdTOM+) cells, western blot (vehicle vs TL02-59 treated cell lysates, FIG. 23): inactivated Fgr; also recorded: inhibited
